According to PubChem BioAssay (NCI):
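How tested: cells in 96-well plates exposed to compound for 48 hours at five concentrations. Abbreviation: GI50, concentration required for 50% inhibition of growth. Definition used: TGI = concentration required for complete inhibition of growth.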

Key:
Test in all cases: DTP human tumour cell line panel, 48 h
SK-MEL-28 melanoma = test system: SK-MEL-28 melanoma
KM12 colon = test system: KM12 colon
TK-10 renal = test system: TK-10 renal
SR leukemia = test system: SR leukemia
NCI/ADR-RES ovarian = test system: NCI/ADR-RES ovarian
NCI-H226 lung = test system: NCI-H226 lung
UACC-62 melanoma = test system: UACC-62 melanoma
SNB-75 CNS = test system: SNB-75 CNS
MOLT-4 leukemia = test system: MOLT-4 leukemia
SK-MEL-5 melanoma = test system: SK-MEL-5 melanoma
CCRF-CEM leukemia = test system: CCRF-CEM leukemia
HCT-15 colon = test system: HCT-15 colon
A498 renal = test system: A498 renal
HOP-62 NSCLC = test system: HOP-62 NSCLC
SNB-19 CNS = test system: SNB-19 CNS
A549 NSCLC = test system: A549 NSCLC
SF-539 CNS = test system: SF-539 CNS
HT29 colon = test system: HT29 colon
EKVX NSCLC = test system: EKVX NSCLC
M14 melanoma = test system: M14 melanoma
SF-268 CNS = test system: SF-268 CNS
NCI-H23 lung = test system: NCI-H23 lung
NCI-H522 lung = test system: NCI-H522 lung
MCF7 breast = test system: MCF7 breast
PC-3 prostate = test system: PC-3 prostate
COLO 205 colon = test system: COLO 205 colon
OVCAR-8 ovarian = test system: OVCAR-8 ovarian
UO-31 renal = test system: UO-31 renal
HOP-92 NSCLC = test system: HOP-92 NSCLC

How did the GI50 (SK-MEL-28 melanoma) turn out when CCN1C(C)(C)CC(Oc2ccc(C(=O)Nc3ccc(NC(=O)Nc4cc(C(C)(C)C)on4)cc3)nc2)CC1(C)C was run?
Its GI50 is 1.8 µM.

And the TGI (SK-MEL-28 melanoma)?
Its TGI is 3.63 µM.

What about the GI50 (KM12 colon) of the same compound?
Its GI50 is 2.91 µM.

What about the TGI (KM12 colon) of the same compound?
Its TGI is 9.35 µM.

What about the GI50 (TK-10 renal) of the same compound?
The GI50 was 5.49 µM.

What about the TGI (TK-10 renal) of the same compound?
Its TGI is 14 µM.

What about the GI50 (SR leukemia) of the same compound?
The GI50 was 2.28 µM.

What about the TGI (SR leukemia) of the same compound?
The TGI was 4.91 µM.

What about the GI50 (NCI/ADR-RES ovarian) of the same compound?
Its GI50 is 2.48 µM.

And the TGI (NCI/ADR-RES ovarian)?
Its TGI is greater than 22.6 µM.

What about the GI50 (NCI-H226 lung) of the same compound?
The GI50 was 11.2 µM.

What about the TGI (NCI-H226 lung) of the same compound?
Its TGI is 30.7 µM.

And the GI50 (UACC-62 melanoma)?
Its GI50 is 1.76 µM.

What about the TGI (UACC-62 melanoma) of the same compound?
The TGI was 3.51 µM.

What about the GI50 (SNB-75 CNS) of the same compound?
Its GI50 is 1.35 µM.

What about the TGI (SNB-75 CNS) of the same compound?
Its TGI is 3.44 µM.

And the GI50 (MOLT-4 leukemia)?
The GI50 was 1.93 µM.

What about the TGI (MOLT-4 leukemia) of the same compound?
The TGI was 5.24 µM.

And the GI50 (SK-MEL-5 melanoma)?
Its GI50 is 1.68 µM.

And the TGI (SK-MEL-5 melanoma)?
The TGI was 3.22 µM.

And the GI50 (CCRF-CEM leukemia)?
The GI50 was 2.85 µM.

And the TGI (CCRF-CEM leukemia)?
The TGI was 7.77 µM.

And the GI50 (HCT-15 colon)?
Its GI50 is 1.71 µM.

What about the TGI (HCT-15 colon) of the same compound?
Its TGI is 3.72 µM.

And the GI50 (A498 renal)?
Its GI50 is 1.95 µM.

What about the TGI (A498 renal) of the same compound?
Its TGI is 11.6 µM.

What about the GI50 (HOP-62 NSCLC) of the same compound?
Its GI50 is 1.67 µM.

What about the TGI (HOP-62 NSCLC) of the same compound?
Its TGI is 3.87 µM.

And the GI50 (SNB-19 CNS)?
Its GI50 is 2.64 µM.

And the TGI (SNB-19 CNS)?
The TGI was 11.2 µM.

And the GI50 (A549 NSCLC)?
Its GI50 is 2.71 µM.

And the TGI (A549 NSCLC)?
The TGI was 7.4 µM.

What about the GI50 (SF-539 CNS) of the same compound?
Its GI50 is 1.15 µM.

And the TGI (SF-539 CNS)?
Its TGI is 2.62 µM.

What about the GI50 (HT29 colon) of the same compound?
The GI50 was 1.58 µM.

And the TGI (HT29 colon)?
The TGI was 3.86 µM.

And the GI50 (EKVX NSCLC)?
The GI50 was 3.6 µM.

What about the TGI (EKVX NSCLC) of the same compound?
The TGI was 20.9 µM.

What about the GI50 (M14 melanoma) of the same compound?
Its GI50 is 1.91 µM.

And the TGI (M14 melanoma)?
Its TGI is 3.63 µM.

And the GI50 (SF-268 CNS)?
Its GI50 is 2.39 µM.

What about the TGI (SF-268 CNS) of the same compound?
The TGI was 7.71 µM.

What about the GI50 (NCI-H23 lung) of the same compound?
Its GI50 is 3.64 µM.

What about the TGI (NCI-H23 lung) of the same compound?
The TGI was 20.1 µM.

And the GI50 (NCI-H522 lung)?
Its GI50 is 1.82 µM.

And the TGI (NCI-H522 lung)?
Its TGI is 4.23 µM.

And the GI50 (MCF7 breast)?
The GI50 was 2.14 µM.

What about the TGI (MCF7 breast) of the same compound?
The TGI was 5.55 µM.

And the GI50 (PC-3 prostate)?
Its GI50 is 2.88 µM.

What about the TGI (PC-3 prostate) of the same compound?
The TGI was 8.82 µM.

And the GI50 (COLO 205 colon)?
Its GI50 is 1.83 µM.

And the TGI (COLO 205 colon)?
The TGI was 3.82 µM.

What about the GI50 (OVCAR-8 ovarian) of the same compound?
The GI50 was 2.29 µM.

And the TGI (OVCAR-8 ovarian)?
The TGI was 5.66 µM.

What about the GI50 (UO-31 renal) of the same compound?
The GI50 was 1.67 µM.

What about the TGI (UO-31 renal) of the same compound?
Its TGI is 4.25 µM.

And the GI50 (HOP-92 NSCLC)?
Its GI50 is 2.38 µM.

What about the TGI (HOP-92 NSCLC) of the same compound?
The TGI was 8.09 µM.
